The values that follow are results of earlier work, collected in patent publication US20210121562A1, “PHARMACEUTICAL COMPOSITION FOR TREATMENT AND/OR PREVENTION OF CANCER” (TORAY INDUSTRIES, INC., priority 2018, published 2021).

Molecules are shown by their SMILES.

Data set [1] concerns extramammary Paget's disease. The following applies: supportive care for extramammary Paget's disease.
The subject of another data set is basal cell cancer. The following applies: basal cell cancer in patients having histories of rituximab administration for non-Hodgkin lymphoma.

Regarding `CC(C)Cn1cnc2c(N)nc3ccccc3c21` [imiquimod, 4-amino-1-(2-methylpropyl)-1H-imidazo[4,5-c]quinoline], the cases completely responded in data set [1] was 7 out of 9. In addition, the “antitumor effect of imiquimod” value with basal cell cancer is “attenuated”.
